Data taken from ChEMBL document CHEMBL1201862, “PubChem BioAssay data set” (2004).
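Each compound was tested at five concentrations against cells in 96-well plates for 48 hours. Abbreviation: GI50, concentration required for 50% inhibition of growth.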 The source made the active and inactive calls. Rule as the data show it: active = GI50 up to about 1.1 µM and inactive = higher.

Assays:
Assay in all cases: DTP human tumour cell line panel, 48 h
[1] = tested on: UACC-62
[2] = tested on: A549
[3] = tested on: SK-OV-3
[4] = tested on: CAKI-1
[5] = tested on: SNB-19
[6] = tested on: SN12C
[7] = tested on: A498
[8] = tested on: HOP-92
[9] = tested on: RPMI-8226
[10] = tested on: Hs-578T
[11] = tested on: OVCAR-8
[12] = tested on: OVCAR-3
[13] = tested on: DU-145
[14] = tested on: NCI-H226
[15] = tested on: HCT-116
[16] = tested on: SW-620
[17] = tested on: EKVX
[18] = tested on: K562
[19] = tested on: NCI-H522

Row | Compound | GI50 [1] | GI50 [2] | GI50 [3] | GI50 [4] | GI50 [5] | GI50 [6] | GI50 [7] | GI50 [8] | GI50 [9] | GI50 [10] | GI50 [11] | GI50 [12] | GI50 [13] | GI50 [14] | GI50 [15] | GI50 [16] | GI50 [17] | GI50 [18] | GI50 [19]
1 | CC[C@H]1C=CCC[C@@]2(C[C@@H]3CC[C@@H]4[C@H](C(=O)OCCCCCCCCCCCCCCCC(=O)N(CCCN)C[C@@H](O)CCN)[C@]5(CCC[C@@H](C)O5)NC(=[N+]34)N2)O1 | 0.0678 µM (active) | 0.282 µM (active) | 2.05 µM (inactive) | 0.0528 µM (active) | 0.0822 µM (active) | 0.766 µM (active) | 0.625 µM (active) | 0.158 µM (active) | 0.0855 µM (active) | 1.21 µM (inactive) | 0.451 µM (active) | 0.887 µM (active) | 0.731 µM (active) | 0.968 µM (active) | 0.286 µM (active) | 0.352 µM (active) | 0.897 µM (active) | 0.236 µM (active) | 0.174 µM (active)
2 | c1ccc(CNc2c3c(nc4ccccc24)CCC3)cc1 | 12.8 µM (inactive) | 15.1 µM (inactive) | 15.4 µM (inactive) | 15.3 µM (inactive) | 23 µM (inactive) | 16.4 µM (inactive) | 11.7 µM (inactive) | 10.4 µM (inactive) | 10 µM (inactive) | 27.2 µM (inactive) | 14.1 µM (inactive) | 12.2 µM (inactive) | 21.5 µM (inactive) | 17.1 µM (inactive) | 9.1 µM (inactive) | 11.9 µM (inactive) | 12.1 µM (inactive) | 5.58 µM (inactive) | 15.7 µM (inactive)
3 | CCOC(=O)C1(CC(=O)O)CCCC1=O (stereo not given) | > 100 µM (inactive) | > 100 µM (inactive) | > 100 µM (inactive) | > 100 µM (inactive) | > 100 µM (inactive) | > 100 µM (inactive) | > 100 µM (inactive) | > 100 µM (inactive) | > 100 µM (inactive) | > 100 µM (inactive) | > 100 µM (inactive) | > 100 µM (inactive) | > 100 µM (inactive) | > 100 µM (inactive) | > 100 µM (inactive) | > 100 µM (inactive) | > 100 µM (inactive) | > 100 µM (inactive) | > 100 µM (inactive)
4 | O=C1CCCC1CN1CCCC1 (stereo not given) | 17.7 µM (inactive) | > 75.5 µM (inactive) | 13.8 µM (inactive) | 0.348 µM (active) | > 100 µM (inactive) | 17.7 µM (inactive) | 22.5 µM (inactive) | 6.56 µM (inactive) | 0.431 µM (active) | 22.2 µM (inactive) | 17.3 µM (inactive) | 14.2 µM (inactive) | 30.5 µM (inactive) | 46.2 µM (inactive) | 3.44 µM (inactive) | 5.24 µM (inactive) | 18.1 µM (inactive) | 0.251 µM (active) | < 0.0275 µM (active)
5 | O=C1C(CN2CCCCC2)CCC1CN1CCCCC1 (stereo not given) | 17.3 µM (inactive) | > 96.6 µM (inactive) | > 100 µM (inactive) | 9.48 µM (inactive) | > 100 µM (inactive) | 30.4 µM (inactive) | 15.2 µM (inactive) | 23.2 µM (inactive) | 9.91 µM (inactive) | > 51.3 µM (inactive) | 26.8 µM (inactive) | 17.1 µM (inactive) | > 88.5 µM (inactive) | > 96.6 µM (inactive) | 24.5 µM (inactive) | 6.37 µM (inactive) | > 100 µM (inactive) | 1.2 µM (inactive) | 5.35 µM (inactive)
6 | O=C(O)[C@H]1NC[C@H]2C(Br)=NO[C@@H]12 | > 100 µM (inactive) | > 100 µM (inactive) | > 100 µM (inactive) | > 100 µM (inactive) | > 100 µM (inactive) | > 100 µM (inactive) | > 100 µM (inactive) | > 100 µM (inactive) | > 100 µM (inactive) | > 100 µM (inactive) | > 100 µM (inactive) | > 100 µM (inactive) | > 100 µM (inactive) | > 100 µM (inactive) | > 100 µM (inactive) | > 100 µM (inactive) | > 100 µM (inactive) | > 100 µM (inactive) | > 100 µM (inactive)
7 | COc1nc2c(c(=O)n1C)N[C@H]1[C@H](OC(C)=O)[C@@H](OC(C)=O)CO[C@H]1N2 | > 100 µM (inactive) | > 100 µM (inactive) | > 100 µM (inactive) | > 100 µM (inactive) | > 100 µM (inactive) | > 100 µM (inactive) | > 100 µM (inactive) | > 100 µM (inactive) | > 100 µM (inactive) | > 100 µM (inactive) | > 100 µM (inactive) | > 100 µM (inactive) | > 100 µM (inactive) | > 100 µM (inactive) | > 100 µM (inactive) | > 100 µM (inactive) | > 100 µM (inactive) | > 100 µM (inactive) | > 100 µM (inactive)
8 | NC1=NC2(COC(c3ccccc3)(c3ccccc3)c3ccccc3)OC(COC(c3ccccc3)(c3ccccc3)c3ccccc3)C(O)C2O1 (stereo not given) | 27.6 µM (inactive) | 25.1 µM (inactive) | > 100 µM (inactive) | > 100 µM (inactive) | 23 µM (inactive) | > 100 µM (inactive) | > 100 µM (inactive) | 15.2 µM (inactive) | 16.6 µM (inactive) | 0.258 µM (active) | 5.98 µM (inactive) | > 100 µM (inactive) | > 100 µM (inactive) | 24.2 µM (inactive) | 38.3 µM (inactive) | > 100 µM (inactive) | 16.4 µM (inactive) | 21.8 µM (inactive) | 52.5 µM (inactive)
9 | Oc1cc(-c2cccc(OC(F)(F)F)c2)nc2ccc(N3CCCC3)cc12 | < 0.0001 µM (active) | 0.0103 µM (active) | 0.000117 µM (active) | 0.01 µM (active) | 0.00018 µM (active) | 0.00041 µM (active) | 0.000322 µM (active) | 0.0731 µM (active) | 0.000261 µM (active) | 0.01 µM (active) | 0.000426 µM (active) | < 0.0001 µM (active) | 0.000316 µM (active) | 0.000142 µM (active) | 0.000121 µM (active) | 0.00019 µM (active) | 0.031 µM (active) | < 0.0001 µM (active) | 0.000376 µM (active)
10 | Cc1nc(SCC(=O)Nc2ccccc2)c2sc(=S)n(-c3ccccc3)c2n1 | > 10 µM (inactive) | > 10 µM (inactive) | > 10 µM (inactive) | > 10 µM (inactive) | 8.41 µM (inactive) | > 10 µM (inactive) | > 10 µM (inactive) | > 10 µM (inactive) | > 10 µM (inactive) | 4.25 µM (inactive) | 9.12 µM (inactive) | > 10 µM (inactive) | > 10 µM (inactive) | 2.9 µM (inactive) | > 10 µM (inactive) | > 10 µM (inactive) | > 10 µM (inactive) | – | > 10 µM (inactive)
11 | O=C(c1ccccc1)c1cc[n+](C2=C([N-]S(=O)(=O)c3ccccc3)C(=O)c3ccccc3C2=O)cc1 | 1.88 µM (inactive) | 14.5 µM (inactive) | 15.4 µM (inactive) | 2.36 µM (inactive) | 13.8 µM (inactive) | 6.85 µM (inactive) | 18.1 µM (inactive) | 8.61 µM (inactive) | 3.3 µM (inactive) | 3.66 µM (inactive) | 13 µM (inactive) | 3.1 µM (inactive) | 13.9 µM (inactive) | 15.8 µM (inactive) | 11.3 µM (inactive) | 10 µM (inactive) | 14 µM (inactive) | 2.65 µM (inactive) | 4.74 µM (inactive)
12 | CC(C)(CC(O)C#N)/[N+]([O-])=[N+](\[O-])C(C)(C)CC(O)C#N (stereo not given) | 16 µM (inactive) | 57.4 µM (inactive) | 29.8 µM (inactive) | 10.9 µM (inactive) | 84.3 µM (inactive) | 19.3 µM (inactive) | > 100 µM (inactive) | 18.2 µM (inactive) | 19.4 µM (inactive) | 12.2 µM (inactive) | 32.3 µM (inactive) | 22.5 µM (inactive) | 30.5 µM (inactive) | 25.6 µM (inactive) | 15.2 µM (inactive) | 12 µM (inactive) | 32.6 µM (inactive) | 14.4 µM (inactive) | 13.8 µM (inactive)
13 | COc1ccc(CCNC(=S)NC=C2C(=O)c3ccccc3C2=O)cc1OC | > 100 µM (inactive) | > 100 µM (inactive) | > 100 µM (inactive) | > 100 µM (inactive) | > 100 µM (inactive) | > 100 µM (inactive) | > 100 µM (inactive) | 0.741 µM (active) | 17.9 µM (inactive) | 14.8 µM (inactive) | > 100 µM (inactive) | 0.0982 µM (active) | > 100 µM (inactive) | > 100 µM (inactive) | > 100 µM (inactive) | > 100 µM (inactive) | > 100 µM (inactive) | > 100 µM (inactive) | > 100 µM (inactive)
14 | O=C1CC2SC(COCc3ccccc3)(CCN2Cc2ccccc2)C1 (stereo not given) | 81.1 µM (inactive) | 51.2 µM (inactive) | > 100 µM (inactive) | > 100 µM (inactive) | > 100 µM (inactive) | > 100 µM (inactive) | > 100 µM (inactive) | 45.6 µM (inactive) | 30.2 µM (inactive) | > 100 µM (inactive) | > 100 µM (inactive) | > 100 µM (inactive) | > 100 µM (inactive) | 87.3 µM (inactive) | 44.2 µM (inactive) | > 100 µM (inactive) | 64.3 µM (inactive) | 38.1 µM (inactive) | 56.8 µM (inactive)
